From ChEMBL document CHEMBL1201862, “PubChem BioAssay data set” (2004)
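1) Cells in 96-well plates. 2) Compound, 48 h, 5 concentrations. 3) Linear interpolation between surrounding doses. 4) Unreached endpoint = highest concentration. At the GI50, growth is halved.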 Activity calls are given as the source filed them. Cut-off read from the data, not from the text of the source: active = GI50 up to about 1.1 µM and inactive = higher.

Assays:
Test in all cases: NCI tumour cell line growth inhibition, 48 h
[1] = test system: 786-0
[2] = test system: A549
[3] = test system: ACHN
[4] = test system: EKVX
[5] = test system: HT-29
[6] = test system: K562
[7] = test system: M14
[8] = test system: NCI-H226
[9] = test system: NCI-H460
[10] = test system: NCI-H522
[11] = test system: OVCAR-3
[12] = test system: OVCAR-5
[13] = test system: SF-268
[14] = test system: SNB-75
[15] = test system: SNB-78
[16] = test system: U-251
[17] = test system: UACC-62
[18] = test system: SNB-19

Measured: GI50

COc1cc(Nc2nc3cc(C(F)(F)F)ccc3nc2C)cc(OC)c1OC
inactive: [1] 12.2 µM | [2] > 10 µM | [3] 8.11 µM | [4] 16.6 µM | [5] 3 µM | [6] 5.52 µM | [7] 7.6 µM | [8] 5.14 µM | [9] 4.11 µM | [10] 12.3 µM | [11] 16.1 µM | [12] 13.3 µM | [13] 16 µM | [14] 15.5 µM | [15] 11.1 µM | [16] 9.95 µM | [17] 3.94 µM

CCCCCNC(=O)CCCCCCCCCCCNC(=O)CCCCCCCCCCN1C=CC(=CC=C2C=CC(=O)C=C2)C=C1
inactive: [1] > 100 µM | [2] > 100 µM | [3] > 100 µM | [4] > 100 µM | [5] 54.6 µM | [6] 21.2 µM | [7] > 100 µM | [8] 63.8 µM | [9] > 100 µM | [10] 32.4 µM | [11] 41.3 µM | [12] > 100 µM | [13] > 100 µM | [18] 34.8 µM | [14] 19.4 µM | [15] 15.3 µM | [16] 32.1 µM | [17] 48.4 µM

COC(=O)C1=CC2C(=O)OC1CC2C#N (configuration not stated)
inactive: [1] > 100 µM | [2] > 100 µM | [3] > 100 µM | [5] > 100 µM | [6] > 100 µM | [7] > 100 µM | [8] > 100 µM | [9] > 100 µM | [10] > 100 µM | [11] > 100 µM | [13] > 100 µM | [18] > 100 µM | [14] > 100 µM | [15] > 100 µM | [16] > 100 µM | [17] > 100 µM

O=C1C(=O)N(C(=O)c2ccc(Cl)c(Cl)c2)c2ccc(Cl)cc21
inactive: [1] > 100 µM | [2] > 100 µM | [3] > 100 µM | [4] 74 µM | [5] > 100 µM | [6] 59.3 µM | [7] > 100 µM | [8] > 100 µM | [9] 89.7 µM | [11] 56.6 µM | [12] > 100 µM | [13] > 100 µM | [18] > 100 µM | [14] 31.8 µM | [15] > 100 µM | [16] > 100 µM | [17] > 100 µM

COc1cc(-c2ccccc2)c(OC)cc1CCl
inactive: [1] > 100 µM | [2] > 100 µM | [3] > 100 µM | [4] > 100 µM | [5] > 100 µM | [6] > 100 µM | [7] > 100 µM | [8] > 100 µM | [9] > 100 µM | [10] > 100 µM | [11] > 100 µM | [12] > 100 µM | [13] > 100 µM | [18] > 100 µM | [14] > 100 µM | [15] > 100 µM | [16] > 100 µM | [17] > 100 µM

COc1ccc(/C=C/C(=O)c2cc(C(=O)O)c(OC)cc2OC)cc1OC
inactive: [1] > 100 µM | [2] > 100 µM | [3] > 100 µM | [4] > 100 µM | [5] > 100 µM | [6] > 100 µM | [7] > 100 µM | [8] > 100 µM | [9] > 100 µM | [10] > 100 µM | [12] > 100 µM | [13] > 100 µM | [18] > 100 µM | [14] > 100 µM | [15] > 100 µM | [16] > 100 µM | [17] > 100 µM

O=C(O)Cc1ccccc1CCc1ccccc1Cl
inactive: [1] > 100 µM | [2] > 100 µM | [4] 96.4 µM | [5] > 100 µM | [6] > 100 µM | [7] > 100 µM | [8] 68.1 µM | [9] > 100 µM | [10] > 100 µM | [11] 53.2 µM | [12] > 100 µM | [13] > 100 µM | [18] > 100 µM | [14] 93.8 µM | [15] > 100 µM | [16] > 100 µM

c1cncc(C2c3[nH]c4ccccc4c3CCN2CCCN2CCCCC2)c1 (configuration not stated)
inactive: [1] > 100 µM | [2] > 100 µM | [3] > 100 µM | [4] > 100 µM | [5] > 100 µM | [6] > 100 µM | [7] 18.6 µM | [8] > 100 µM | [9] > 100 µM | [10] > 100 µM | [11] 51.1 µM | [12] > 100 µM | [18] > 100 µM | [14] > 100 µM | [15] > 100 µM | [16] > 100 µM | [17] 92.9 µM

[N-]=[N+]=NC1(Cc2ccccc2)C(=O)Nc2ccccc2C1=O (configuration not stated)
inactive: [1] > 100 µM | [2] > 100 µM | [3] > 100 µM | [4] > 100 µM | [5] > 100 µM | [6] > 100 µM | [7] > 100 µM | [9] > 100 µM | [10] 87.1 µM | [11] 91.6 µM | [12] > 100 µM | [13] > 100 µM | [18] > 100 µM | [14] > 100 µM | [15] 52.8 µM | [16] > 100 µM | [17] > 100 µM

O/N=C1/CCCC/C1=C/C=C/c1ccccc1
inactive: [1] 23.2 µM | [2] 22.8 µM | [3] 25.6 µM | [5] 18.3 µM | [6] 18.4 µM | [7] 21.2 µM | [8] 23.6 µM | [9] 22.7 µM | [10] 19.1 µM | [11] 17.9 µM | [12] 26.7 µM | [13] 19.1 µM | [18] 48 µM | [14] 20.4 µM | [15] 25.5 µM | [16] 16.7 µM | [17] 18.6 µM

O=[PH](O)c1cc2ccccc2c2ccccc12
inactive: [1] > 100 µM | [2] > 100 µM | [4] > 100 µM | [5] > 100 µM | [6] > 100 µM | [7] > 100 µM | [8] > 100 µM | [9] > 100 µM | [10] > 100 µM | [11] > 100 µM | [13] > 100 µM | [18] > 100 µM | [14] > 100 µM | [15] > 100 µM | [16] > 100 µM | [17] > 100 µM

C#C[C@]1(O)CC[C@H]2[C@@H]3CCc4cc(O)ccc4[C@H]3CC[C@@]21C [ETHINYL ESTRADIOL]
inactive: [1] 34.6 µM | [2] 29.1 µM | [3] 78.7 µM | [4] 11.7 µM | [5] 13 µM | [8] 20.3 µM | [9] 21.7 µM | [10] 10.9 µM | [11] 28 µM | [12] 85.3 µM | [13] 44.1 µM | [18] 68.5 µM | [14] 12.6 µM | [15] 33.4 µM | [16] 7.8 µM | [17] 34.3 µM
